Measured values from ChEMBL document CHEMBL2331232, “Α-mangostin and gambogic acid as potential inhibitors of the p53-MDM2 interaction revealed by a yeast approach” (J Nat Prod, 2013).
Calls of active or inactive are those of the source. No cut-off for these calls is given here.

Assays:
[1] = system: Cellular tumor antigen p53 (Homo sapiens), P04637 [R280K]; assay: Inhibition of human p53 R280K mutant expressed in Saccharomyces cerevisiae CG379 assessed as effect on cell growth at 10 uM after 31 hrs
[2] = biological target: E3 ubiquitin-protein ligase Mdm2 (Homo sapiens) (UniProt Q00987); assay: Inhibition of human MDM2 expressed in Saccharomyces cerevisiae CG379 assessed as effect on cell cycle arrest at 1 to 100 uM after 42 hrs
Chain of E3 ubiquitin-protein ligase Mdm2 (Homo sapiens) (Q00987 whole entry, looked up): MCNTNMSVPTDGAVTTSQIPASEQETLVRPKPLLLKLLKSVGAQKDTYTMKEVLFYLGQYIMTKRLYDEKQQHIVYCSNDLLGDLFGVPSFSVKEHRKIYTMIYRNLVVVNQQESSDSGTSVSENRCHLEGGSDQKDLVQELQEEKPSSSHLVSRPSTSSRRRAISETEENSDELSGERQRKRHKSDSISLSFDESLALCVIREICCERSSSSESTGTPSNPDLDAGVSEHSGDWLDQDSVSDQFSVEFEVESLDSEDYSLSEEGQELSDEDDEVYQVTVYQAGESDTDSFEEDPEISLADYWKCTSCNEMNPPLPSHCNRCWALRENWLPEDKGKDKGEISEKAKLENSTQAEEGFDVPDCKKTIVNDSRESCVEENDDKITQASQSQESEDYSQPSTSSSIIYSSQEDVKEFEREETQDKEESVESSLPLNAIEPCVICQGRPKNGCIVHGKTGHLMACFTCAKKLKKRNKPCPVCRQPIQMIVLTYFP

[3] = biological target: Cellular tumor antigen p53 (Homo sapiens) (UniProt P04637); assay: Inhibition of human p53 expressed in Saccharomyces cerevisiae CG379 assessed as effect on cell growth at 1 to 100 uM after 42 hrs
Chain of Cellular tumor antigen p53 (Homo sapiens) (P04637 whole entry, looked up): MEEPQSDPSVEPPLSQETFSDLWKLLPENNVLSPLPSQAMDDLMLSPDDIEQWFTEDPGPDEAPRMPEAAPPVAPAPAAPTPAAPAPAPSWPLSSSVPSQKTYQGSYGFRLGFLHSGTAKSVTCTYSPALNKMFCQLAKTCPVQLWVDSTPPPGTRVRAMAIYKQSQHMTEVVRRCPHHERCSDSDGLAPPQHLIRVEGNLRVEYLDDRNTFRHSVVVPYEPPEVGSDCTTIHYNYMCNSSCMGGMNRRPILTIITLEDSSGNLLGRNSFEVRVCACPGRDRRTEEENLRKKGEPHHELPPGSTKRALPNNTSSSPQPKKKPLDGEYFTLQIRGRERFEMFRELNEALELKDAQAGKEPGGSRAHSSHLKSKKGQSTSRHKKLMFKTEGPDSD

[4] = biological target: Cellular tumor antigen p53 (Homo sapiens) (UniProt P04637); assay: Inhibition of human p53 expressed in Saccharomyces cerevisiae CG379 assessed as effect on cell cycle arrest at 1 to 100 uM after 42 hrs

| Compound | inhibition [1] | inhibition [2] | inhibition [3] | inhibition [4] |
| --- | --- | --- | --- | --- |
| CC(C)=CCC[C@]1(C)C=Cc2c(O)c3c(c(CC=C(C)C)c2O1)O[C@]12C(=C[C@@H]4C[C@H]1C(C)(C)O[C@@]2(C/C=C(/C)C(=O)O)C4=O)C3=O | inactive | Active | inactive | inactive |
| COc1c(O)cc2oc3cc(O)c(CC=C(C)C)c(O)c3c(=O)c2c1CC=C(C)C | inactive | inactive | inactive | inactive |
